This is an account of results in PubChem BioAssay AID330 (DTP/NCI, 2004).

Where “and” joins values, the source holds several entries; their conditions need not be identical. Identical values can stand only once. Toxic doses and inconclusive results are not listed.

This assay concerns P388 leukemia ip, CD2F1 mice, survival T/C. Briefly: NCI In Vivo Anticancer Drug Screen. Data for tumor model P388 Leukemia (intraperitoneal) in CD2F1 (CDF1) mice. The conditions noted are these: endpoint: median survival time, higher = longer survival. The method in brief:
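Mice carrying the transplanted tumor received test compound or vehicle. Survival was recorded in each group, and the value is the treated-group measurement divided by that of the vehicle-treated control group.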

The mark [1] stands for this setting: dose: 12.5 mg/kg/injection, schedule: Q01DX009 (ip), vehicle: Klucel (hydroxypropylcellulose) (HPC).
The mark [2] stands for this setting: dose: 25.0 mg/kg/injection, schedule: Q01DX009 (ip), vehicle: Klucel (hydroxypropylcellulose) (HPC).
Setting [3] is: dose: 50.0 mg/kg/injection, schedule: Q01DX009 (ip), vehicle: Klucel (hydroxypropylcellulose) (HPC).
The mark [4] stands for this setting: dose: 25.0 mg/kg/injection, schedule: Q01DX009 (ip), vehicle: other.
Setting [5] is: dose: 50.0 mg/kg/injection, schedule: Q01DX009 (ip), vehicle: other.
Setting [6] is: dose: 100.0 mg/kg/injection, schedule: Q01DX009 (ip), vehicle: other.
Setting [7] is: dose: 200.0 mg/kg/injection, schedule: Q01DX009 (ip), vehicle: other.
Where [8] appears, read: dose: 400.0 mg/kg/injection, schedule: Q01DX009 (ip), vehicle: other.
[9] abbreviates: dose: 50.0 mg/kg/injection, schedule: Q01DX005 (ip), vehicle: saline with Tween-80.
[10] abbreviates: dose: 100.0 mg/kg/injection, schedule: Q01DX005 (ip), vehicle: saline with Tween-80.
[11] abbreviates: dose: 200.0 mg/kg/injection, schedule: Q01DX005 (ip), vehicle: saline with Tween-80.
[12] abbreviates: dose: 100.0 mg/kg/injection, schedule: Q01DX009 (ip), vehicle: Klucel (hydroxypropylcellulose) (HPC).
Setting [13] is: dose: 12.5 mg/kg/injection, schedule: Q01DX009 (ip), vehicle: water.
Where [14] appears, read: dose: 25.0 mg/kg/injection, schedule: Q01DX009 (ip), vehicle: water.
The mark [15] stands for this setting: dose: 50.0 mg/kg/injection, schedule: Q01DX009 (ip), vehicle: water.
Where [16] appears, read: dose: 100.0 mg/kg/injection, schedule: Q01DX009 (ip), vehicle: water.
Where [17] appears, read: dose: 50.0 mg/kg/injection, schedule: Q01DX009 (ip), vehicle: saline.
[18] abbreviates: dose: 100.0 mg/kg/injection, schedule: Q01DX009 (ip), vehicle: saline.
The mark [19] stands for this setting: dose: 200.0 mg/kg/injection, schedule: Q01DX009 (ip), vehicle: saline.

On to `CC1=C2CCC(O)C2(C)CCC(=O)C1` (stereo not drawn), for which the T/C reads like this: (dose: 100.0 mg/kg/injection, schedule: Q04DX003 (ip), vehicle: Klucel (hydroxypropylcellulose) (HPC)) 105 % of control; (dose: 200.0 mg/kg/injection, schedule: Q04DX003 (ip), vehicle: Klucel (hydroxypropylcellulose) (HPC)) 99 % of control.

For the compound `O=[N+]([O-])c1ccc([Se]c2ncccn2)c([N+](=O)[O-])c1`, the T/C runs as follows: (dose: 25.0 mg/kg/injection, schedule: Q04DX003 (ip), vehicle: saline) 104 % of control; (dose: 50.0 mg/kg/injection, schedule: Q04DX003 (ip), vehicle: saline) 104 % of control; (dose: 100.0 mg/kg/injection, schedule: Q04DX003 (ip), vehicle: saline) 100 % of control and 117 % of control; (dose: 200.0 mg/kg/injection, schedule: Q04DX003 (ip), vehicle: saline) 100 % of control.

Turning to `N[C@H](CCOc1ccc(/C(=N/O)C(=O)N[C@H]2CN([C@@H](C(=O)O)c3ccc(O)cc3)C2=O)cc1)C(=O)O`, the T/C runs as follows: (dose: 50.0 mg/kg/injection, schedule: Q01DX005 (ip), vehicle: water) 101 % of control; (dose: 100.0 mg/kg/injection, schedule: Q01DX005 (ip), vehicle: water) 97 % of control; (dose: 200.0 mg/kg/injection, schedule: Q01DX005 (ip), vehicle: water) 105 % of control.

As to `O=S(=O)(Cl)CCCCS(=O)(=O)Cl`, the T/C is 103 % of control under setting [1]; 91 % of control under setting [2]; 99 % of control and 101 % of control under setting [3].

Consider `C1=Cc2ccccc2CS1`, for which the T/C reads like this: under setting [4], 106 % of control; under setting [5], 116 % of control; under setting [6], 108 % of control; under setting [7], 88 % of control; under setting [8], 88 % of control.

In the case of `CCOC(=O)N1NC(=O)CC1(C)C`, the T/C is, setting by setting: (dose: 100.0 mg/kg/injection, schedule: Q01DX001 (ip), vehicle: saline) 95 % of control; (dose: 200.0 mg/kg/injection, schedule: Q01DX001 (ip), vehicle: saline) 100 % of control; (dose: 400.0 mg/kg/injection, schedule: Q01DX001 (ip), vehicle: saline) 90 % of control.

Take `COc1ccc2c(c1OC)C(C(C)=O)N1CCc3cc4c(cc3C1=C2)OCO4` (stereo not drawn): the T/C is 106 % of control (dose: 0.63 mg/kg/injection, schedule: Q01DX009 (ip), vehicle: distilled water + Tween-80); 101 % of control (dose: 1.25 mg/kg/injection, schedule: Q01DX009 (ip), vehicle: distilled water + Tween-80); 99 % of control (dose: 2.5 mg/kg/injection, schedule: Q01DX009 (ip), vehicle: distilled water + Tween-80); 96 % of control (dose: 5.0 mg/kg/injection, schedule: Q01DX009 (ip), vehicle: distilled water + Tween-80); 101 % of control (dose: 10.0 mg/kg/injection, schedule: Q01DX009 (ip), vehicle: distilled water + Tween-80); 101 % of control (dose: 20.0 mg/kg/injection, schedule: Q01DX009 (ip), vehicle: distilled water + Tween-80).

With `O=C1CSc2nc3ccc(Cl)cc3c(=O)n21`, the T/C is, setting by setting: under setting [9], 93 % of control; under setting [10], 101 % of control; under setting [11], 104 % of control.

Turning to `O=C(NCc1ccc(Cl)cc1)OCc1c2ccccc2cc2ccccc12`, the T/C runs as follows: under setting [3], 95 % of control; under setting [12], 93 % of control.

As to `COc1cc2cc3c4cc(OC)c(OC)cc4cc(C)[n+]3cc2cc1OC`, the T/C is, setting by setting: under setting [13], 155 % of control; under setting [14], 180 % of control; under setting [15], 170 % of control; under setting [16], 163 % of control.

On to `O=C1c2ccccc2C(=O)c2c1ccc1c2OCO1`, for which the T/C (dose: 5.0 mg/kg/injection, schedule: Q01DX005 (ip), vehicle: Klucel (hydroxypropylcellulose) (HPC)) was 96 % of control; the T/C (dose: 10.0 mg/kg/injection, schedule: Q01DX005 (ip), vehicle: Klucel (hydroxypropylcellulose) (HPC)) was 87 % of control; the T/C (dose: 20.0 mg/kg/injection, schedule: Q01DX005 (ip), vehicle: Klucel (hydroxypropylcellulose) (HPC)) was 86 % of control and 88 % of control; the T/C (dose: 40.0 mg/kg/injection, schedule: Q01DX005 (ip), vehicle: Klucel (hydroxypropylcellulose) (HPC)) was 95 % of control.

On to `C=C1C[C@@H](O)[C@H](O)[C@@]2(C)C[C@@H]3OC(=O)C(=C)[C@@H]3C[C@H]12`, for which the T/C (dose: 3.12 mg/kg/injection, schedule: Q01DX009 (ip), vehicle: saline) was 103 % of control; the T/C (dose: 6.25 mg/kg/injection, schedule: Q01DX009 (ip), vehicle: saline) is 104 % of control and 119 % of control; the T/C (dose: 12.5 mg/kg/injection, schedule: Q01DX009 (ip), vehicle: saline) is 104 % of control and 113 % of control; the T/C (dose: 25.0 mg/kg/injection, schedule: Q01DX009 (ip), vehicle: saline) was 122 % of control.

For the compound `CC(C)=CCC[C@](C)(O[C@@H]1O[C@H](CO)[C@@H](O)[C@H](O)[C@H]1O)[C@H]1CC[C@]2(C)[C@@H]1[C@H](O)C[C@@H]1[C@@]3(C)CC[C@H](O)C(C)(C)[C@@H]3[C@@H](O[C@@H]3O[C@H](CO)[C@@H](O)[C@H](O)[C@H]3O)C[C@]12C`, the T/C reads like this: under setting [17], 105 % of control; under setting [18], 106 % of control; under setting [19], 106 % of control.

Consider `CCc1c(N2CCOCC2)c(C#N)c2nc3ccccc3n2c1N1CCOCC1`, for which the T/C (dose: 60.0 mg/kg/injection, schedule: Q01DX005 (ip), vehicle: saline with Tween-80) is 99 % of control; the T/C (dose: 120.0 mg/kg/injection, schedule: Q01DX005 (ip), vehicle: saline with Tween-80) was 95 % of control; the T/C (dose: 240.0 mg/kg/injection, schedule: Q01DX005 (ip), vehicle: saline with Tween-80) was 98 % of control.

In the case of `Cc1ccc(C(=O)N/N=C/C(=O)O)cc1`, the T/C is 94 % of control under setting [1]; 95 % of control under setting [2]; 94 % of control under setting [3]; 88 % of control under setting [12]; 88 % of control (dose: 200.0 mg/kg/injection, schedule: Q01DX009 (ip), vehicle: Klucel (hydroxypropylcellulose) (HPC)).

Turning to `CC(C(=O)O)N1CN(/N=C/c2ccc(Cl)cc2Cl)C(N)=NC1(O)CCl` (stereo not drawn), the T/C is, setting by setting: (dose: 60.0 mg/kg/injection, schedule: Q01DX005 (ip), vehicle: saline) 101 % of control; (dose: 120.0 mg/kg/injection, schedule: Q01DX005 (ip), vehicle: saline) 101 % of control; (dose: 240.0 mg/kg/injection, schedule: Q01DX005 (ip), vehicle: saline) 115 % of control.

For `CC(C)C(NC(=O)OCc1ccccc1)C(=O)NC(Cc1c[nH]c2ccccc12)C(=O)O` (stereo not drawn), the T/C was 99 % of control under setting [9], 99 % of control under setting [10] and 95 % of control under setting [11].

As for `CCC[n+]1noc(N)n1`, the T/C is, setting by setting: (dose: 3.13 mg/kg/injection, schedule: Q01DX009 (ip), vehicle: water) 97 % of control; (dose: 6.25 mg/kg/injection, schedule: Q01DX009 (ip), vehicle: water) 99 % of control; under setting [13], 90 % of control; under setting [14], 97 % of control; under setting [15], 106 % of control; under setting [16], 106 % of control.

Take `NC(=N/C(=C/c1ccccc1)c1ccccc1)c1ccccc1`: the T/C runs as follows: under setting [9], 92 % of control; under setting [10], 102 % of control.

`COc1cc2nnn(-c3ccncc3)c2cc1OC`: the T/C is, setting by setting: under setting [4], 100 % of control; under setting [5], 93 % of control; under setting [6], 99 % of control; under setting [7], 96 % of control; under setting [8], 96 % of control.

With `CC(C)(C)C(=O)CC(=O)C(C)(C)C.[Cu]`, the T/C runs as follows: (dose: 100.0 mg/kg/injection, schedule: Q04DX003 (ip), vehicle: saline with Tween-80) 94 % of control; (dose: 200.0 mg/kg/injection, schedule: Q04DX003 (ip), vehicle: saline with Tween-80) 101 % of control.

For `CP1(=S)CCC(=O)C1` (stereo not drawn), the T/C is 101 % of control under setting [17], 101 % of control under setting [18] and 103 % of control under setting [19].
